Reference: patent publication US11130756B2, “[1,2,4]Triazolo[4,3-A]pyridinyl substituted indole compounds” (BRISTOL-MYERS SQUIBB COMPANY, priority 2017, dated 2021)

Legend:
Assay type in all cases: cell-based
[1] = target: T1, human TLR7 (Homo sapiens, UniProt Q9NYK1); assay: TLR7 inhibition reporter assay (HEK-Blue, SEAP); conditions: HEK-Blue cells overexpressing human TLR7, gardiquimod 7.5 μM, 22 hour incubation
T1 construct: host or cells: HEK-Blue cells
T1 sequence (Q9NYK1 27-1049): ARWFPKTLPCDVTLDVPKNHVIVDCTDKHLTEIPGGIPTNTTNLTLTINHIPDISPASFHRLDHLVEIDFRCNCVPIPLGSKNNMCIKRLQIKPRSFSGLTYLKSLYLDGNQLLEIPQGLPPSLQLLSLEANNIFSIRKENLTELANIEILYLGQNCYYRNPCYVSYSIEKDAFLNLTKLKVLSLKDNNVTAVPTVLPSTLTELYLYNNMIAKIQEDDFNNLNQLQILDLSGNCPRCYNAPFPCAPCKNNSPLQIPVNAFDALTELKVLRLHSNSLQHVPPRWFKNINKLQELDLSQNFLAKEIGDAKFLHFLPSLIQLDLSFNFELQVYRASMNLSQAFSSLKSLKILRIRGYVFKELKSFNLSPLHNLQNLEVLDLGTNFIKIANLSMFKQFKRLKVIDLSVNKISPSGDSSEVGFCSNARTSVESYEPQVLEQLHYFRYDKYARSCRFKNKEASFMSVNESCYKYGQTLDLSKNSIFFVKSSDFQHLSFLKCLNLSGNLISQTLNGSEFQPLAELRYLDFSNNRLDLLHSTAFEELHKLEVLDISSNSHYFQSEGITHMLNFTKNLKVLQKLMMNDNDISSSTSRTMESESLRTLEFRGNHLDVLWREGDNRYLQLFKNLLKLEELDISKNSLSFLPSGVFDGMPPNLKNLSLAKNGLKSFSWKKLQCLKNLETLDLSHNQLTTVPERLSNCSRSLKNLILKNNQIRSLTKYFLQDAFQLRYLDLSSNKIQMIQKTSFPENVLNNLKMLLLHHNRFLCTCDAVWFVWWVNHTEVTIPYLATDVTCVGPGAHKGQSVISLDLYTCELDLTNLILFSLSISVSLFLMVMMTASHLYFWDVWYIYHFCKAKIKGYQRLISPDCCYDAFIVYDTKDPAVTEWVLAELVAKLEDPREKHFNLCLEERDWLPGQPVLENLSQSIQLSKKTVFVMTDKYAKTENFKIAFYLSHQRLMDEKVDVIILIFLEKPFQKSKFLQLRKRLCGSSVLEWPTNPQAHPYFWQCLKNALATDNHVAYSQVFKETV
Experimental: (§1) TLR7/8/9 Inhibition Reporter Assays
(§2) HEK-Blue™-cells (Invivogen) overexpressing human TLR7, TLR8 or TLR9 receptors were used for screening inhibitors of these receptors using an inducible SEAP (secreted embryonic alkaline phosphatase) reporter gene under the control of the IFN-β minimal promoter fused to five NF-κB and AP-1-binding sites. Briefly, cells are seeded into Greiner 384 well plates (15000 cells per well for TLR7, 20,000 for TLR8 and 25,000 for TLR9) and then treated with test compounds in DMSO to yield a final dose response concentration range of 0.05 nM-50 μM. After a 30 minute compound pre-treatment at room temperature, the cells are then stimulated with a TLR7 ligand (gardiquimod at a final concentration of 7.5 μM), TLR8 ligand (R848 at a final concentration of 15.9 μM) or TLR9 ligand (ODN2006 at a final concentration of 5 nM) to activate NF-κB and AP-1 which induce the production of SEAP. After a 22 hour incubation at 37° C., 5% CO2, SEAP levels are determined with the addition of HEK-Blue™ Detection reagent (Invivogen), a cell culture medium that allows for detection of SEAP, according to manufacturer's specifications. The percent inhibition is determined as the % reduction in the HEK-Blue signal present in wells treated with agonist plus DMSO alone compared to wells treated with a known inhibitor.

[2] = target: T2, human TLR9 (Homo sapiens, UniProt Q9NR96); assay: TLR9 inhibition reporter assay (HEK-Blue, SEAP); conditions: HEK-Blue cells overexpressing human TLR9, ODN2006 5 nM, 22 hour incubation
T2 construct: host or cells: HEK-Blue cells
T2 sequence (Q9NR96 26-1032): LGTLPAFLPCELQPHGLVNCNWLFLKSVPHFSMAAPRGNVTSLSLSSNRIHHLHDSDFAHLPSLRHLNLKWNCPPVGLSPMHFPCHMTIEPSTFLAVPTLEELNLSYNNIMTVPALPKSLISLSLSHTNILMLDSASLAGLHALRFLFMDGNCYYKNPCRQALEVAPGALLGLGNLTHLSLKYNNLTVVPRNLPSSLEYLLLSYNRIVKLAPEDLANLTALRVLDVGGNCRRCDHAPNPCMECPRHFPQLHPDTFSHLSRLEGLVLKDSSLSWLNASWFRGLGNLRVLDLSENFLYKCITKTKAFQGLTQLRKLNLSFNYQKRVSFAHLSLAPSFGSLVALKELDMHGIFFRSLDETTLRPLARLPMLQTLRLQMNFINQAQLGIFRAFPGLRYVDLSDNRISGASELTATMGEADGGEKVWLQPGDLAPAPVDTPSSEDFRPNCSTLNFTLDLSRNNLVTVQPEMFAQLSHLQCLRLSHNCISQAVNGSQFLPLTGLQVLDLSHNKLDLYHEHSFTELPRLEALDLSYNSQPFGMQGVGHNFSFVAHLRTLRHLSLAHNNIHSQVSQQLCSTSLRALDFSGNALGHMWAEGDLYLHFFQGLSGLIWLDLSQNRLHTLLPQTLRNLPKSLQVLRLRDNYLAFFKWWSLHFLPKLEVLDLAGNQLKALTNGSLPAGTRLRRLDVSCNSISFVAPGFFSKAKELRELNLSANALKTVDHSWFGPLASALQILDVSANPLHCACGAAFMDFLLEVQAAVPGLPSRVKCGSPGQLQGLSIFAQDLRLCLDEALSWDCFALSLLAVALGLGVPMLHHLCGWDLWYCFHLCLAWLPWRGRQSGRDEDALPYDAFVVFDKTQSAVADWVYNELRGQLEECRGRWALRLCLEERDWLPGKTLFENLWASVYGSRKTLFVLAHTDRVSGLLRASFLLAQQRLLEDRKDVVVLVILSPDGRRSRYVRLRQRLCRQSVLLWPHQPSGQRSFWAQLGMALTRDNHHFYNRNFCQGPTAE
Experimental: as §1, §2

[3] = target: T3, human TLR8 (Homo sapiens, UniProt Q9NR97); assay: TLR8 inhibition reporter assay (HEK-Blue, SEAP); conditions: HEK-Blue cells overexpressing human TLR8, R848 15.9 μM, 22 hour incubation
T3 construct: host or cells: HEK-Blue cells
T3 sequence (Q9NR97 27-1041): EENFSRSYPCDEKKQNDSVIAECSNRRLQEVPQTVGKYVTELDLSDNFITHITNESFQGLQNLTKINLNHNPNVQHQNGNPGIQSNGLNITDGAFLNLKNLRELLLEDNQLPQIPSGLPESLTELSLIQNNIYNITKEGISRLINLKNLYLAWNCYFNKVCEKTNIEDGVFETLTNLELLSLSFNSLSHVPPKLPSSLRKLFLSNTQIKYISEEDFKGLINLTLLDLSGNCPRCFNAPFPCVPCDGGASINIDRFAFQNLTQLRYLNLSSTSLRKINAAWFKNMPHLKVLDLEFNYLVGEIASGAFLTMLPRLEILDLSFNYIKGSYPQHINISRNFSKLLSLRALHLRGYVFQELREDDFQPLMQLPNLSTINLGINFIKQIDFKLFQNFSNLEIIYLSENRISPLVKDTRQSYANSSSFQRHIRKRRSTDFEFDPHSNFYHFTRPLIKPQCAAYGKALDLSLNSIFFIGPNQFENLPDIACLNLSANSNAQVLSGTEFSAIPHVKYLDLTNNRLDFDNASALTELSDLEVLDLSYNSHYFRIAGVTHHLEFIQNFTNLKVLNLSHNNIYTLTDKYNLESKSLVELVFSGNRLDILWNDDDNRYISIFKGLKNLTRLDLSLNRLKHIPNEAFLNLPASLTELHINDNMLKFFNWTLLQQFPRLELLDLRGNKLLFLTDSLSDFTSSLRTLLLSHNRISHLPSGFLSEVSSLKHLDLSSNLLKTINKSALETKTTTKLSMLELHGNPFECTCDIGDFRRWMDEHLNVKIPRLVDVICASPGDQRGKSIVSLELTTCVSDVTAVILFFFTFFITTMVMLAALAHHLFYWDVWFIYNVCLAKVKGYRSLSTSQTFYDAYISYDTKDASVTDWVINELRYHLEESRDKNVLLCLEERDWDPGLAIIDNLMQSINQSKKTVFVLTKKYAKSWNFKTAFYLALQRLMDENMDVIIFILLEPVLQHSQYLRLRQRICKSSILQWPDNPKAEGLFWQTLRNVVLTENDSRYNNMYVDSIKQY
Experimental: as §1, §2

| Compound | IC50 [1] [nM] | IC50 [2] [nM] | IC50 [3] [nM] |
| --- | --- | --- | --- |
| CC(C)c1c(-c2ccc3nncn3c2)[nH]c2ccc(C3CCN(Cc4ncn(C)n4)CC3)cc12 [Example 23, 6-(3-isopropyl-5-(1-((1-methyl-1H-1,2,4-triazol-3-yl)methyl)piperidin-4-yl)-1H-indol-2-yl)-[1,2,4]triazolo[4,3-a]pyridine] | 54.9 | ≥ 50000 | 375 |
| Cc1nnc2ccc(-c3[nH]c4ccc(C5CCNCC5)cc4c3C(C)C)cn12 [Example 3, 6-(3-isopropyl-5-(piperidin-4-yl)-1H-indol-2-yl)-3-methyl-[1,2,4]triazolo[4,3-a]pyridine] | 27.1 | 340 | 40.7 |
| CNC(=O)CN1CCC(c2ccc3[nH]c(-c4cc(C)c5nncn5c4)c(C(C)C)c3c2)CC1 [Example 16, 2-(4-(3-isopropyl-2-(8-methyl-[1,2,4]triazolo[4,3-a]pyridin-6-yl)-1H-indol-5-yl)piperidin-1-yl)-N-methylacetamide] | 2 | 2520 | 10.2 |
| Cc1cc(-c2[nH]c3ccc(C4CCN(Cc5ncn(C)n5)CC4)cc3c2C(C)C)c(C)n2cnnc12 [Example 40, 6-(3-isopropyl-5-(1-((1-methyl-1H-1,2,4-triazol-3-yl)methyl)piperidin-4-yl)-1H-indol-2-yl)-5,8-dimethyl-[1,2,4]triazolo[4,3-a]pyridine] | 104 | 7890 | 4.5 |
| Cc1cc(-c2[nH]c3ccc(C4CCN(CCCC(F)(F)F)CC4)cc3c2C(C)C)c(C)n2cnnc12 [Example 41, 6-(3-isopropyl-5-(1-(4,4,4-trifluorobutyl)piperidin-4-yl)-1H-indol-2-yl)-5,8-dimethyl-[1,2,4]triazolo[4,3-a]pyridine] | 25.5 | 2850 | 3.3 |

Further lines, results first:

| IC50 [1] [nM] | IC50 [2] [nM] | IC50 [3] [nM] | Compound |
| --- | --- | --- | --- |
| 1.5 | 1810 | 4.6 | Cc1ncc(CN2CCC(c3ccc4[nH]c(-c5cn6cnnc6c(C)c5C)c(C(C)C)c4c3)CC2)cn1 [Example 91, 6-(3-isopropyl-5-(1-((2-methylpyrimidin-5-yl)methyl)piperidin-4-yl)-1H-indol-2-yl)-7,8-dimethyl-[1,2,4]triazolo[4,3-a]pyridine] |
| 32.5 | 3750 | 6 | Cc1cc(-c2[nH]c3ccc(C4CCN(CC(=O)N(C)C)CC4)cc3c2C(C)C)c(C)n2cnnc12 [Example 42, 2-(4-(2-(5,8-dimethyl-[1,2,4]triazolo[4,3-a]pyridin-6-yl)-3-isopropyl-1H-indol-5-yl)piperidin-1-yl)-N,N-dimethylacetamide] |
| 1.8 | 6610 | 3.2 | Cc1c(-c2[nH]c3ccc(C4CCN(CCS(C)(=O)=O)CC4)cc3c2C(C)C)cn2cnnc2c1C [Example 43, 6-(3-isopropyl-5-(1-(2-(methylsulfonyl)ethyl)piperidin-4-yl)-1H-indol-2-yl)-7,8-dimethyl-[1,2,4]triazolo[4,3-a]pyridine] |
| 2.5 | 917 | 14.6 | Cc1cc(-c2[nH]c3ccc(C4CCN(C(=O)CN(C)C)CC4)cc3c2C(C)C)cn2cnnc12 [Example 104, 2-(dimethylamino)-1-(4-(3-isopropyl-2-(8-methyl-[1,2,4]triazolo[4,3-a]pyridin-6-yl)-1H-indol-5-yl)piperidin-1-yl)ethanone] |
| 2.3 | 768 | 56.1 | COc1cc(-c2[nH]c3ccc(C4CCN(C(C)C)CC4)cc3c2C(C)C)cn2cnnc12 [Example 97, 6-(3-isopropyl-5-(1-isopropylpiperidin-4-yl)-1H-indol-2-yl)-8-methoxy-[1,2,4]triazolo[4,3-a]pyridine] |
| 3.3 | 23800 | 21.7 | Cc1c(-c2[nH]c3ccc(C4CCN(C5COC5)CC4)cc3c2C(C)C)cn2cnnc2c1C [Example 75, 6-(3-isopropyl-5-(1-(oxetan-3-yl)piperidin-4-yl)-1H-indol-2-yl)-7,8-dimethyl-[1,2,4]triazolo[4,3-a]pyridine] |
| 17.3 | 1500 | 245 | COc1cc(-c2[nH]c3ccc(C4CCN(CC5(C)COC5)CC4)cc3c2C(C)C)cn2cnnc12 [Example 90, 6-(3-isopropyl-5-(1-((3-methyloxetan-3-yl)methyl)piperidin-4-yl)-1H-indol-2-yl)-8-methoxy-[1,2,4]triazolo[4,3-a]pyridine] |
